# Test results reported in patent US20250381307A1, “RETRO-AAV AND USE IN TREATING NEURODEGENERATIVE DISEASES” (priority 2023, published 2025).
# What was measured:
# [1] = CSF concentration of DCZ by LC-MS; format: in vivo, macaques; details: 24 hours after drug infusion, 0.3 mg/kg i.m., FIG. 24D
# Excerpt: One month of washout was allowed before administration of DCZ.
# rM3Ds [2] = biological target: T1, rM3Ds (Rattus norvegicus, UniProt P08483, A177S/A238G/A489L/DEL261-437/DEL441-478/E258S/I253V/I483M/INS256[…]/K178L/K182A/K255R/K484R/K486H/L173F/L482A/M480V/R171S/R176Q/R179M/S481M/T174R/T181R/T257A/Y148C); assay: In vivo electrophysiological recording in caudate/putamen of MPP+ lesioned macaques; set-up: rM3Ds; 2A-EYFP (C); host or cells: AAV8R12-transduced striatal D1-MSNs of mice and cynomolgus macaques (in vivo and acute slices)
# T1 sequence (P08483 with tags, fused parts or gaps Y148C/R171S/L173F/T174R/R176Q/A177S/K178L/R179M/T181R/K182A/A238G/I253V/K255R/INS256[…]/T257A/E258S/DEL261-437/DEL441-478/M480V/S481M/L482A/I483M/K484R/K486H/A489L): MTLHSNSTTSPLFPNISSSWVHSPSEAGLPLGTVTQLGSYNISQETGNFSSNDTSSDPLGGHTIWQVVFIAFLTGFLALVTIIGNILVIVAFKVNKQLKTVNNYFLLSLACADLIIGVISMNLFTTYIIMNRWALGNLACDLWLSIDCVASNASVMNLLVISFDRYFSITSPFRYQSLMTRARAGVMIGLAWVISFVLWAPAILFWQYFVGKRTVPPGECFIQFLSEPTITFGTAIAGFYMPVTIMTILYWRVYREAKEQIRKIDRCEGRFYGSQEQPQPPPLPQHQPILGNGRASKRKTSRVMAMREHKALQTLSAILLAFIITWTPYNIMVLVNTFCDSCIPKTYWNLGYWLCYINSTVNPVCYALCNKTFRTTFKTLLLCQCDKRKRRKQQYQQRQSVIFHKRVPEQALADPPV
# Protocol: Electrophysiological recording was performed through a recording chamber while the monkey was anesthetized. Neural responses were recorded by a 16-channel linear probe (Plexon Inc, Uprobe) driven by a mechanical microdrive (Alpha Omega, FlexMT). Signals were passed through a head stage (Plexon Inc, HST/16V-G20 LN) and then split and filtered between 300 Hz and 5 kHz to identify spiking activity with an amplifier system (Plexon Inc, OmniPlex). Detected spikes were then sorted by commercially available software (Plexon Inc, Offline Sorter) for further analysis. To quantify the effect of CNO/DCZ injection, neural activity was recorded for 60 minutes following CNO/DCZ injection. The response time-course for each channel was obtained by counting the spikes within every 10-minute window and then normalizing to the maximal.
# To determine the effect of CNO/DCZ injection on the direction of signal change, we performed Pearson correlation between neural responses and time using the ‘corr’ function in Matlab, which generates the correlation coefficient ‘r’ and significant level ‘p’. A neuron was considered to have “Increased” activity when r>0 and p<0.05; and considered to have “Decreased” activity when r<0 and p<0.05. Otherwise, neurons were considered to be “Unchanged” in their neural activities. The responses of all increased neurons were then averaged after being normalized by the maximal response (Crowe et al., 2014; Dai and Wang, 2018; Hirokawa et al., 2019) following CNO/DCZ injection, and then plotted as a function of time to generate the normalized population response.
# rM3Ds [3] = biological target: T1, rM3Ds
# Protocol: Monkeys were continuously monitored by veterinarians after lesion.
# Dyskinesia score criteria were: 0: Absent. 1: Mild, fleeting, present <30% of the observation period.
# Each block included ten continuous trials.
# Customized surface EMG electrodes were used for EMG recordings. […] The recording procedure was conducted immediately after DCZ infusions.
# [4] = Blood test of liver- and kidney-related factors during DCZ treatment; format: in vivo, macaques; details: FIG. 36B-36F
# Excerpt: FIG. 36A-36F depict effects of D1-MSN activation on dyskinesia-like behavior and health state-related blood factors in parkinsonian macaques. FIG. 36A illustrates quantitation of dyskinesia score at 2 months, 4 months, and 8 months after treatment with DCZ. n=3 monkeys per group.
# [5] = Locomotion test in naive macaques without viral injection; format: in vivo; details: DCZ 0.3 mg/kg i.m., FIG. 35A-35G
structure (smiles),measurement,setting,value
"CN1CCN(C2=Nc3ccccc3Nc3ccccc32)CC1 [DCZ, deschloroclozapine]",DCZ levels in cerebrospinal fluid,[1],no detectable levels
same,caudate/putamen cells activated (FIG. 15G),"rM3Ds [2]; CNO 36 cells, DCZ 31 cells, saline 17.9%",41.9%
same,caudate/putamen cells inactivated (FIG. 15G),rM3Ds [2]; saline 33.4%,9.7%
same,caudate/putamen cells unchanged (FIG. 15G),rM3Ds [2]; saline 48.7%,48.4%
same,efficacy after extended prior L-Dopa administration,"rM3Ds [3]; 4 months prior L-Dopa, 1 month washout, FIG. 24F-24L",did not affect the efficacy of DCZ treatment or the absence of dyskinesia
same,alleviation of parkinsonian symptoms over long-term treatment,rM3Ds [3]; 8-month continuous treatment with DCZ,appeared to be consistent
same,motor skills,"rM3Ds [3]; DCZ, hand to mouth movement",a significant recovery of motor skills
same,alleviation of symptoms after each dose at steady-state efficacy,rM3Ds [3]; FIG. 24C,at least 24 hours
same,parkinsonian symptoms,"rM3Ds [3]; MPP+ macaques with AAV8R12-G88P7-rM3Ds-2A-EYFP, DCZ 0.3 mg/kg i.m., L-Dopa/benserazide 20/5 mg/kg/day oral",a reversal of canonical parkinsonian symptoms in all tested monkeys
same,tremor,"rM3Ds [3]; after DCZ treatment, EMG",great reduced or even eliminated
same,speed of reversal of symptoms,"rM3Ds [3]; initial phase of drug administration, FIG. 24B",faster reversal of symptoms than levodopa
same,dyskinesia,rM3Ds [3]; long-term treatment,dyskinesia-free
same,duration of effect (FIG. 18C),rM3Ds [3]; n=3 monkeys,over 24 hr
same,spontaneous movement in an observation cage,rM3Ds [3]; systemic DCZ,an increase in spontaneous movement
same,"blood levels of common liver- and kidney-related factors (ALT, AST, GGT, CREA, BUN)",[4],remained stable
same,motor-related behaviors in naïve monkeys,[5],did not alter motor-related behaviors
